Each structure is given as a SMILES string. “And” between values parts separate entries of the source, which are not always exact repeats. Equal entries are not always repeated.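 Assay format: 96-well plates, 48-hour exposure. GI50 is the concentration that inhibits growth by half. TGI: total growth inhibition.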 Some results are limits rather than exact numbers.

Common to all, as to experiment: growth of human tumour cells (NCI), 48 h
Assay [1] relates to 786-0 renal.
The test system of assay [2] is DU-145 prostate.
The test system of assay [3] is HCT-116 colon.
Assay [4] concerns NCI-H226 lung.
In assay [5] the test system is RPMI-8226 leukemia.
Assay [6] concerns SF-268 CNS.
In assay [7] the test system is SF-295 CNS.
Assay [8] has as its system SK-MEL-5 melanoma.
For assay [9], the system named is SNB-75 CNS.
Assay [10] relates to UO-31 renal.

For `CC1=Cc2cc3[n-]c(cc4nc(cc5[n-]c(cc1n2)cc5C)C(C)=C4CCC(=O)O)c(CCC(=O)O)c3C.[Pd+2]`, the GI50 in [1] is over 21.8 µM; in assay [2], over 100 µM; in assay [3], 24.1 µM; in [4], 8.95 µM; in assay [5] it was 17.3 µM; in assay [6] it was 20.6 µM. In addition, the GI50 is 17.5 µM in assay [7], 7.73 µM in assay [8], 6.8 µM in assay [9] and 9.73 µM in assay [10]. The TGI is over 49.6 µM in assay [1]; over 100 µM in assay [2]; 41.4 µM in assay [3]; 17.8 µM in assay [4]; 36.9 µM in assay [5]; 47.7 µM in [6]. In addition, the TGI in [7] came out at 36.3 µM; in assay [8], 19.6 µM; in assay [9], 29.9 µM; in [10] it was 21.5 µM.

Take `COc1nc(C)cc2c(=O)n(-c3ccccc3)n(CCCN3CCN(c4ccc(Cl)cc4)CC3)c(=O)c12`: the GI50 was 31.2 µM in [1]; over 50 µM in assay [2]; 27.5 µM in assay [3]; over 50 µM in assay [4]; over 50 µM in assay [5]; 37.7 µM in [6]. Also, the GI50 in [7] was 29.2 µM; in assay [8] it was 16.9 µM; in [9], 14.1 µM; in [10], 31.9 µM. In addition, the TGI in [1], in [2], in assay [3], in [4], in [5] and in [6] was over 50 µM each time. The TGI in assay [7] was over 50 µM; in assay [8], over 50 µM; in [9], 47.6 µM; in assay [10], over 50 µM.

As for `O=C1CCC2(C=C(Br)C(=O)C(Br)=C2)O1`, the GI50 in assay [1] is 17 µM; in [2] it was 5.44 µM; in [3] it was 1.69 µM; in [4] it was 17.6 µM; in [5], 10.7 µM; in assay [6], 15.1 µM. Besides, the GI50 in assay [7] was 15.9 µM; in assay [8], 16.4 µM; in [9], 13.2 µM; in [10] it was 5.54 µM. The TGI in [1] worked out at 30.8 µM; in [2] it was 15.5 µM; in assay [3] it was 3.12 µM; in assay [4], 36.2 µM; in [5] it was 46 µM; in assay [6], 28.6 µM. Moreover, the TGI in [7] is 31.7 µM; in assay [8] it was 30 µM; in [9], 26 µM; in [10] it was 11.4 µM.

Take `N=C(N)CCCCCCCCC(=N)N`: the GI50 is over 100 µM in assay [1]; 20.8 µM in assay [2]; 22.8 µM in [3]; 15.7 µM in assay [4]; 31.1 µM in assay [5]; 42.6 µM in assay [6]. Moreover, the GI50 is 23.5 µM in assay [7], 38.2 µM in [8], 29.1 µM in assay [9] and 18.2 µM in assay [10]. Besides, the TGI in assay [1], in assay [2], in assay [3], in assay [4], in assay [5] and in assay [6] was over 100 µM throughout. Moreover, the TGI in assay [7] was 81.3 µM; in assay [8], over 100 µM; in [9], over 100 µM; in assay [10], over 100 µM.

Turning to `CNC(=O)c1cccc(-c2ccc3c(N4CCOC[C@@H]4C)nc(N4CCOC[C@@H]4C)nc3n2)c1`, the GI50 is 0.229 µM and 0.252 µM in assay [1]; 0.162 µM and 0.302 µM and 0.25 µM in assay [2]; 0.303 µM and 0.451 µM and 0.407 µM in [3]; 0.0438 µM and 0.149 µM and 0.115 µM in assay [4]; 0.0486 µM and 0.0473 µM and 0.0363 µM in assay [5]; 0.0653 µM and 0.209 µM and 0.212 µM in assay [6]. The GI50 was 0.0494 µM and 0.123 µM and 0.0336 µM in assay [7]; 0.109 µM and 0.17 µM and 0.176 µM in assay [8]; 0.027 µM and 0.117 µM and 0.0316 µM in [9]; 0.0278 µM and 0.0604 µM and 0.0328 µM in [10]. Further, the TGI in assay [1] is over 32.8 µM; in assay [2], over 100 µM; in [3] it was over 100 µM; in assay [4], 0.77 µM and 2.9 µM and 0.959 µM; in assay [6], 10.5 µM and > 6.59 µM and > 100 µM; in assay [7], 0.392 µM and 0.795 µM and 0.22 µM. In addition, the TGI in [8] is 0.718 µM and 0.99 µM and 2.87 µM; in [9] it was 0.373 µM and 0.647 µM and 0.403 µM.

Turning to `O=c1cc(-c2ccccc2)nc2n1CCN2Cc1ccccc1`, the GI50 was 39.7 µM in [1]; 34 µM in assay [2]; 31.6 µM in assay [3]; 54.7 µM in [4]; 15.6 µM in [5]; 46.9 µM in assay [6]. In addition, the GI50 was 21.1 µM in assay [7], 19.9 µM in assay [8], 60.5 µM in assay [9] and 21.3 µM in assay [10]. The TGI in assay [1] was over 100 µM; in [2], over 100 µM; in [3], over 100 µM; in assay [4], over 100 µM; in [5], 39.9 µM; in assay [6] it was over 100 µM. Moreover, the TGI in assay [7] is 72.2 µM; in assay [8], 37.4 µM; in assay [9], over 100 µM; in assay [10], 74.7 µM.

`COc1cc2c(/C=C3/C(=O)Nc4ccccc43)c(Cl)n(Cc3ccccc3[N+](=O)[O-])c2cc1C`: the GI50 in assay [1] was 6.31 µM; in [2] it was 6.74 µM; in [3], 2.71 µM; in assay [4], 12.7 µM; in [5] it was 3.49 µM; in [6] it was 24 µM. Besides, the GI50 in [7] was 6.9 µM; in assay [8], 5.02 µM; in assay [10] it was 6.29 µM. Also, the TGI is 22.5 µM in [1]; over 100 µM in [2]; 18.6 µM in [3]; 38.4 µM in assay [4]; over 100 µM in assay [5]; over 100 µM in assay [6]. Besides, the TGI in assay [7] stood at 22.8 µM; in assay [8], 19.6 µM; in assay [10] it was 25.1 µM.

Regarding `Cc1nc2cccc(NCc3ccc(C(=O)NO)cc3)c2c(=O)n1-c1ccccc1`, the GI50 in [1] is 1.81 µM; in assay [2], 2.7 µM; in assay [3], 1.35 µM; in [4] it was 2.01 µM; in assay [5], 2.39 µM; in [7], 1.76 µM. Besides, the values for the GI50 in [8], in assay [9] and in assay [10] were 1.64 µM, 1.97 µM and 1.37 µM, respectively. In addition, the TGI in [1] was 3.78 µM; in assay [2], 11.9 µM; in assay [3] it was 4.76 µM; in [4], 6.08 µM; in assay [5], over 100 µM; in assay [7], 3.54 µM. Further, the TGI came out at 3.1 µM in assay [8], 5.46 µM in assay [9] and 3.15 µM in assay [10].

With `Nc1ccccc1C#C/C=C\C#Cc1ccc(Cl)cc1Cl`, the GI50 in [1] is 13.5 µM; in [2], 13.5 µM; in assay [3] it was 12 µM; in [4], 19.2 µM; in [5], 0.89 µM; in assay [6], 4.38 µM. The GI50 was 5.17 µM in assay [7], 6.63 µM in assay [8] and 14.2 µM in assay [10]. Also, the TGI came out at 27.4 µM in assay [1]; 37.8 µM in assay [2]; 24.9 µM in assay [3]; 39.5 µM in [4]; 30.5 µM in assay [5]; 23.7 µM in [6]. Further, the TGI in assay [7] turned out to be 20 µM; in [8], 21.2 µM; in assay [10], 40 µM.

As for `COC(=O)C(Nc1ccc(OC)cc1)c1ccccc1` (configuration not stated), the TGI in [1], in assay [2], in assay [3], in assay [5], in [6] and in assay [7] was over 100 µM each time. The TGI in assay [8] and in assay [10] was over 100 µM in each case.

For `C=C1C(=O)OC2CC3(CO3)C3C(O)C(O)CC3(C)CC12` (configuration not stated), the TGI in assay [1] was over 100 µM; in assay [2] it was over 100 µM; in assay [3], 38 µM; in assay [4] it was over 100 µM; in [5] it was over 100 µM; in [6] it was over 100 µM. For the same compound, the TGI was over 100 µM in assay [7], 42 µM in assay [8] and over 100 µM in [9].

As for `COC(=O)/C(=C\c1c(C)[nH]c2ccccc12)S(=O)(=O)c1ccccc1`, the GI50 in assay [1] was 8.23 µM; in assay [2], 2.94 µM; in [3] it was 3.8 µM; in [4] it was 4.34 µM; in [5] it was 3.15 µM; in [6], 3.33 µM. Besides, the GI50 was 3.07 µM in assay [7], 3.08 µM in assay [9] and 4.39 µM in assay [10]. The TGI in assay [1] is 24.1 µM; in assay [2], 8.01 µM; in assay [3], 17.3 µM; in [4], 19.5 µM; in assay [5], over 100 µM; in assay [6], 11.1 µM. Besides, the values for the TGI in [7], in assay [9] and in [10] were 15.7 µM, 14.6 µM and 18.4 µM, respectively.

For the compound `O=C(C(Br)Br)C(Br)C(Br)c1ccccc1` (configuration not stated), the GI50 in assay [1] is 3.47 µM; in assay [2] it was 11.4 µM; in assay [3] it was 1.83 µM; in [4], 3.31 µM; in assay [5], 1.54 µM; in assay [6], 4.04 µM. Moreover, the GI50 in [8] was 10.6 µM; in assay [9], 19.9 µM; in assay [10], 2.5 µM. The TGI was 11 µM in [1]; 23.6 µM in assay [2]; 3.42 µM in assay [3]; 15.4 µM in assay [4]; 4.36 µM in assay [5]; 16.9 µM in [6]. Moreover, the TGI was determined as 22.7 µM in assay [8], 53.4 µM in assay [9] and 7.86 µM in [10].

With `CC(=O)OC(C)(C)/C=C/C(=O)[C@](C)(O)[C@H]1[C@H](O)C[C@@]2(C)[C@@H]3CC=C4[C@@H](C[C@H](O)C(=O)C4(C)C)[C@]3(C)C(=O)C[C@]12C`, the TGI is 14.8 µM in assay [1]; 1.05 µM in [2]; 1.22 µM in assay [3]; under 0.01 µM in [5]; under 0.01 µM in assay [6]; 0.0304 µM in [7]. Besides, the TGI is 0.135 µM in assay [8], under 0.01 µM in [9] and under 0.0167 µM in [10].

For `CN(C)c1ccc2c3c(c(=O)oc2c1)CCC3`, the TGI in assay [1], in assay [2], in assay [3], in assay [4], in assay [5] and in assay [6] was over 100 µM throughout. In addition, the TGI in assay [7], in assay [8] and in [10] was over 100 µM in each case.

For `S=C(N/N=C/c1ccccn1)Nc1ccccn1`, the GI50 in assay [1] was 2.58 µM; in [2] it was 2.58 µM; in assay [3] it was 0.371 µM; in assay [4], 2.08 µM; in [5] it was 1.44 µM; in [6], 2.29 µM. Besides, the results for the GI50 in assay [8] and in assay [10] were 0.874 µM and 1.01 µM, respectively. The TGI in [1] is 36.4 µM; in [2], over 100 µM; in assay [3] it was over 100 µM; in [4], 11.8 µM; in [5], over 100 µM; in [6], over 100 µM. Besides, the TGI is 11.3 µM in assay [8] and over 100 µM in [10].

With `CCSc1nc(N=Cc2cccs2)c2cn[nH]c2n1`, the GI50 in [1] was 33.4 µM; in assay [2], 15.1 µM; in assay [3], 6.49 µM; in assay [4], 0.299 µM; in [5], 3.19 µM; in [6], 6.49 µM. The GI50 was 19.1 µM in [7], 7.35 µM in assay [8] and 53.5 µM in assay [10]. The TGI in assay [1] was over 100 µM; in assay [2], over 100 µM; in assay [3], over 100 µM; in assay [4] it was 43.2 µM; in assay [5] it was over 100 µM; in [6] it was over 100 µM. The TGI is over 100 µM in [7], 38.1 µM in assay [8] and over 100 µM in [10].
